Values belong to the molecule of their own block, whether it stands above or below them.
Tests used:
NO synthase [1] = biological target: T1, NO synthase (Rattus norvegicus, UniProt P0DP29+P29476); test: NO synthase activity, conversion of [3H]arginine to [3H]citrulline, purified enzyme; assay type: biochemical; conditions: for EC50: read-out: EC50 for enhancement/stimulation of enzyme activity; for IC50: read-out: Calmodulin antagonists, IC50
[2] = biological target: T2, NO synthase activity in crude brain supernatant preparations (Rattus norvegicus, UniProt P29476); test: NO synthase activity, conversion of [3H]arginine to [3H]citrulline, crude cerebellar/brain supernatant preparations; assay type: biochemical
T2 construct: not recombinant
Description: (§1) This example describes the method by which NOS activity was assayed. […] After incubation for 5 min at 22° C., assays were terminated with 2 ml of 20 mM Hepes, pH 5.5/2 mM EDTA, and were applied to 1-ml columns of Dowex A[…]-8 (Na^+ form), which were eluted with 2 ml of water. [^3 H]Citrulline was quantified by liquid scintillation spectroscopy of the 4-ml flow-through.

NO synthase [3] = biological target: T1, NO synthase; test: Effects of varying calcium, calmodulin and NADPH on NO synthase activity; assay type: biochemical
Description: After incubation for 5 min at 22° C., assays were terminated with 2 ml of 20 mM Hepes, pH 5.5/2 mM EDTA, and were applied to 1-ml columns of Dowex A[…]-8 (Na^+ form), which were eluted with 2 ml of water. [^3 H]Citrulline was quantified by liquid scintillation spectroscopy of the 4-ml flow-through.

[4] = biological target: NO synthase activity in crude brain supernatant preparations (Rattus norvegicus, UniProt P0DP29); test: NO synthase activity, conversion of [3H]arginine to [3H]citrulline, crude cerebellar/brain supernatant preparations; assay type: biochemical; conditions: crude brain supernatant preparations; read-out: IC50, inhibition of NO synthase activity
Description: as §1

NO synthase [5] = biological target: T3, NO synthase (Rattus norvegicus, UniProt P29476); test: Restoration of enzyme activity of DEAE eluate fractions; assay type: biochemical
T3 construct: Eighteen rat cerebella were homogenized; from tissue; host or cells: rat cerebella (supernatant, DEAE eluate, 2',5'-ADP agarose eluate)
Description: Eighteen rat cerebella were homogenized in 100 ml of ice-cold buffer A [50 mM Tris-HCl, pH 7.4/1 mM EDTA/antipain (10 mg/liter)/leupeptin (10 mg/liter)/soybean trypsin inhibitor (10 mg/liter)/pepstatin (10 mg/liter)/chymostatin (10 mg/liter)/phenylmethylsulfonyl fluoride (100 mg/liter)], and all subsequent procedures were carried out at 4° C. The homogenate was centrifuged at 20,000×g for 15 min, and the supernatant was loaded at 2 ml/min onto a 20-ml column of diethylminoethyl (DEAE) equilibrated with buffer A. The column was washed with 50 ml of buffer A and eluted with a 100-ml linear gradient of 0-400 mM NaCl in buffer A. Fractions (2.5 ml) were assayed for enzyme activity.
In our preliminary efforts to purify NO synthase, we observed that enzymatic activity adheres to a DEAE column and can be eluted by 1M NaCl. […] Since NO formation requires Ca^2+, we speculated that calmodulin might be involved. […] NO synthase activity elutes in one sharp, major peak followed by a smaller peak of activity, which is observed reproducibly in multiple experiments.

NO synthase [6] = biological target: T3, NO synthase; test: Storage stability of NO synthase activity; assay type: physicochemical
Description: After incubation for 5 min at 22° C., assays were terminated with 2 ml of 20 mM Hepes, pH 5.5/2 mM EDTA, and were applied to 1-ml columns of Dowex AG502X-8 (Na^+ form), which were eluted with 2 ml of water. [^3 H]Citrulline was quantified by liquid scintillation spectroscopy of the 4-ml flow-through.
The purified enzyme is unstable. When stored at 0° C., 50% of the enzyme activity is lost in 2 hr, whereas the crude supernatant preparation loses 50% activity at 0° C. in 2 days. Stability is enhanced by storing the enzyme in bovine serum albumin (1 mg/ml)/20% (vol/vol) glycerol at -70° C. When stored in this way, the enzyme loses<50%activity in 7 days.

NO synthase [7] = biological target: T3, NO synthase; test: Specific activity of fractions during purification of NO synthase; assay type: biochemical; conditions: typical purification, repeated five times

T1 sequence (P29476 whole entry, one chain of several): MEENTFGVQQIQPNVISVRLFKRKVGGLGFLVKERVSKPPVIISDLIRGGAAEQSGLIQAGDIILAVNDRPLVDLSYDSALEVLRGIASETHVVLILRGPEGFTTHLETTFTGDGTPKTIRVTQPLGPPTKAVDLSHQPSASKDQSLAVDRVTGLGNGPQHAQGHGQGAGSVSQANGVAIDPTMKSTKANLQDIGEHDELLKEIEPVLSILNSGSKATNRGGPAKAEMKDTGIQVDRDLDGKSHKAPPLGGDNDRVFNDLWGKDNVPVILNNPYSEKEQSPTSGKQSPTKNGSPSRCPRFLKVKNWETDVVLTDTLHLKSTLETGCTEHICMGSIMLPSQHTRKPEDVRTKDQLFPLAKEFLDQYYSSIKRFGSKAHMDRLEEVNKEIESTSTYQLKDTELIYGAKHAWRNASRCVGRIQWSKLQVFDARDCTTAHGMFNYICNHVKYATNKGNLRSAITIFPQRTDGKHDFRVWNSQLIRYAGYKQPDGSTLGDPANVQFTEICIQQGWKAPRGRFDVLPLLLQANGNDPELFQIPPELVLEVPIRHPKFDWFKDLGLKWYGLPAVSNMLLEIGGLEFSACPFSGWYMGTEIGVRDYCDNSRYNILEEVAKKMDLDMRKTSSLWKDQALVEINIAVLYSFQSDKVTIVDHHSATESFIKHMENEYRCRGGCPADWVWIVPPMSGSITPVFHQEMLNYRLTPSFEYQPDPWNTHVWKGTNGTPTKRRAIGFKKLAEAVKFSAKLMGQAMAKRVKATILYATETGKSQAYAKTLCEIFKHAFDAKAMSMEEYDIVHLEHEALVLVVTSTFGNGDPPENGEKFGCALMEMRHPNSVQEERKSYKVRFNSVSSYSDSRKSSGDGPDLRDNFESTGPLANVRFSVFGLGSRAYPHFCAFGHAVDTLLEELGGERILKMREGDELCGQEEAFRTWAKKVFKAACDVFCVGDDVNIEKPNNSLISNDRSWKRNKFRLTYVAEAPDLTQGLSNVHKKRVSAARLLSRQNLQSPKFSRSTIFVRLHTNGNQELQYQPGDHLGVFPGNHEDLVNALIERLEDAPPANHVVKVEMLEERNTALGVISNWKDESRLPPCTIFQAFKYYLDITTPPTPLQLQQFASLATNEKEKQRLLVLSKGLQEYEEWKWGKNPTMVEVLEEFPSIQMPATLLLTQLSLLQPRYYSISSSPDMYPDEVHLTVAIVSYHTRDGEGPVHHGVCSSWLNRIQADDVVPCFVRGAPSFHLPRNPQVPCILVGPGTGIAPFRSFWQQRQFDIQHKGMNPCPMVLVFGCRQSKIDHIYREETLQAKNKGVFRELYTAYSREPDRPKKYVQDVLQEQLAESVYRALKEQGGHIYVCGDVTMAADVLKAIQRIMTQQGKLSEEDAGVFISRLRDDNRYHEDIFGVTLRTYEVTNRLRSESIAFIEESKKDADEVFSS

Molecule: [Ca+2] [Ca^2+, calcium]
EC50 (NO synthase [1]): 0.2 µM | EC50 compared with crude preparations ([2]; crude preparations): the same in the pure and crude preparations | Concentration of maximal enhancement of activity (NO synthase [3]): 1 µM | Stimulation in the absence of NADPH (NO synthase [3]; absence of NADPH): fails to stimulate NO synthase activity | Activity at high Ca2+ (NO synthase [3]; concentrations exceeding 100 μM Ca2+): some reduction in activity

Molecule: Calmodulin
EC50 (NO synthase [1]): 0.01 µM | Influence of added calmodulin on enzyme activity ([2]; crude cerebellar supernatant preparations, calmodulin 1 μM): no influence on enzyme activity | Stimulation of NO synthase activity (NO synthase [3]; FIG. 2A): extremely potent stimulator of NO synthase activity | Effect of addition to DEAE eluate fractions on enzyme activity (NO synthase [5]): restores enzyme activity | Effect on stability of the enzyme (NO synthase [6]; presence of calmodulin): Stability is also enhanced

Molecule: NO synthase: calmodulin-dependent nitric oxide synthase purified to homogeneity from rat cerebella by DEAE and 2',5'-ADP agarose chromatography
Vmax (NO synthase [1]; Table 2): 0.96 μmol per min per mg of protein | Specific activity (NO synthase [7]): 960 nmol/mg/min | Enzyme activity lost on storage (NO synthase [6]; bovine serum albumin (1 mg/ml)/20% (vol/vol) glycerol at -70° C., 7 days): < 50% | Time to loss of 50% of the enzyme activity (NO synthase [6]; stored at 0° C.): 2 h

Continued, values first:

IC50 (NO synthase [1]): 25 µM | IC50 [4]: 50 µM
Molecule: NCCCCCCNS(=O)(=O)c1cccc2ccccc12 [W-5]

IC50 (NO synthase [1]): 70 µM | IC50 [4]: 25 µM
Molecule: NCCCCNS(=O)(=O)c1ccc2c(Cl)cccc2c1 [W-13]

— patent US5268465A, “Purification and molecular cloning of nitric oxide synthase” (The Johns Hopkins University, priority 1991, dated 1993)
